Experimental data published in US9474759B2 (priority 2011, dated 2016).
Where two headings read alike, the source gives them in different places.

Key:
[1] = target: MD145 3CLpro (codon-optimized, full-length, N-terminal 6 His, recombinant) (Lordsdale virus, UniProt P54634); experiment: biochemical; design: species or system norovirus strain MD145 (human norovirus GII)
[2] = target: NV 3CLpro (codon-optimized, full-length, N-terminal 6 His, recombinant) (Norovirus, UniProt Q83883); experiment: biochemical; design: species or system norovirus strain Norwalk
Sequence of NV 3CLpro (codon-optimized, full-length, N-terminal 6 His, recombinant) (Q83883 1101-1281): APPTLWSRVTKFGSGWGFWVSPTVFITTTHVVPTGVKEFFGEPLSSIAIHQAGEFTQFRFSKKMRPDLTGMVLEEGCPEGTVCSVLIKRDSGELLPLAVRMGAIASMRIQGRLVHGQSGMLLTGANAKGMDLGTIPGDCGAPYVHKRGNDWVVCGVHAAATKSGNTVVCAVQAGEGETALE

EV71 = experiment: Cell-based screening, EV71 in Vero cells (Example 2); design: species or system enterovirus 71; conditions: Enterovirus A, EV71; Vero cells; read-out: Inhibition [ED50 (μM)] against various viruses: Picornavirus, EV71
Experimental: (§1) 3. Cell-based screening of inhibitor. The effects of each inhibitor on the viral replication were examined. The list of viruses and corresponding cell lines are listed above in Table 2. Briefly, confluent cells were inoculated with virus at a MOI of 5 or 0.05 for 1 hr, and medium was replaced with medium containing mock-medium or each compound (up to 100 μM). The virus infected cells were further incubated for up to 96 hrs, and the replication of virus was measured by TCID50 assay with the 10-fold dilution of each sample used for virus titration (Reed and Muench, 1938). In some viruses, the virus protein and genome expression levels were detected by Western blot analysis and real-time qRT-PCR, respectively, as described below. The IC50s of the compounds were calculated.

FIPV-1146 = FIPV-1146 replication in CRFK cells, TCID50 method; format: cell-based, feline coronavirus; conditions: Alphacoronavirus 1, MOI 0.05, mean ± SEM
Experimental: (§2) Crandell Rees feline kidney (CRFK) cells were maintained in minimal essential medium containing 2-5% fetal bovine serum and antibiotics (chlortetracycline [25 μg/ml], penicillin [250 U/ml], and streptomycin [250 μg/ml]). FIPV WSU 79-1146 and FECV WSU 79-1683 strains are the prototypes of serotype II FIPV or FECV, respectively, and were purchased from ATCC (Manassas, Va.).
(§3) The cells were further incubated in the presence of each compound for 1 hr at 37° C. Then […] or FECV-1683 was inoculated to the cells at a multiplicity of infection (MOI) of 0.05 or 5.
(§4) b. TCID50 Method. A standard TCID50 method with the 10-fold dilution of each sample was used for virus titration.

[3] = target: recombinant 3C or 3CL of MD145 (Norovirus Hu/GII.4/MD145-12/1987/US (Maryland virus), UniProt Q8V0P3); experiment: FRET protease assay, MD145 3CL (Example 2); format: biochemical, norovirus strain MD145
Sequence of recombinant 3C or 3CL of MD145 (Q8V0P3 entry or part of it): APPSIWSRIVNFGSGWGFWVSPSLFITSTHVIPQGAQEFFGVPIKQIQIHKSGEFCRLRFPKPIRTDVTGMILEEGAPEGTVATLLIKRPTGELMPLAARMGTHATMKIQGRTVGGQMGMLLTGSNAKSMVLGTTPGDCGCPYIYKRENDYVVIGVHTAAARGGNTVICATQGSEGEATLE

FIPV = experiment: Cell-based screening, FIPV in CRFK cells (Example 2); design: species or system feline infectious peritonitis virus; conditions: Alphacoronavirus 1; CRFK cells; read-out: Inhibition [ED50 (μM)] against various viruses: Coronavirus, FIPV
Experimental: as §1

Teschovirus = experiment: organism not typed; format: cell-based, porcine teschovirus; conditions: read-out: Inhibition [ED50 (μM)] against various viruses: Picornavirus, Teschovirus
[4] = target: MNV-1 3CLpro (codon-optimized, full-length, recombinant) (Norovirus, UniProt Q80J95); experiment: biochemical; design: species or system murine norovirus-1 (GV)
Sequence of MNV-1 3CLpro (codon-optimized, full-length, recombinant) (Q80J95 995-1177): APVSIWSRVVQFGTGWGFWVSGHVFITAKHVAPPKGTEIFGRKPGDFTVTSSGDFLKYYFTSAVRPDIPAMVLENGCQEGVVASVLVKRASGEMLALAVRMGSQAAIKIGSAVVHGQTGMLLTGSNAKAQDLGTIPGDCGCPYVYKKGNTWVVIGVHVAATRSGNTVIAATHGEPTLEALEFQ

MNV-1 [5] = experiment: microbe, parasite or virus in culture; conditions: Norwalk virus, read-out: Initial IC50 values against MNV-1
FECV-1683 = FECV-1683 replication in CRFK cells, TCID50 method; format: cell-based, feline coronavirus; conditions: Alphacoronavirus 1, MOI 0.05, mean ± SEM
Experimental: as §2, §3, §4

FCV [6] = experiment: Cell-based screening, FCV in CRFK cells (Example 2); conditions: Feline calicivirus; CRFK cells; read-out: Inhibition [ED50 (μM)] against various viruses: Calicivirus, FCV
Experimental: as §1

[7] = tested on: Norwalk virus (HG23 cells); experiment: microbe, parasite or virus in culture; format: cell-based; conditions: HG23, read-out: Inhibition [ED50 (μM)] against various viruses: Calicivirus, HG23 cells
FCV [8] = experiment: Cell culture system, FCV replication in CRFK cells (Example 3); format: cell-based, feline calicivirus; conditions: Feline calicivirus; cell-based assay, CRFK cells; read-out: IC50 against FCV replication
TGEV 3CL protease = TGEV 3CL protease (Porcine transmissible gastroenteritis coronavirus, UniProt P0C6Y5); experiment: FRET-based protease assay, TGEV 3CL protease (Example 5); format: biochemical, TGEV Miller strain; conditions: TGEV 3CL protease; read-out: IC50 against 3CL protease in the FRET assay
Sequence of TGEV 3CL protease (P0C6Y5 2879-3180): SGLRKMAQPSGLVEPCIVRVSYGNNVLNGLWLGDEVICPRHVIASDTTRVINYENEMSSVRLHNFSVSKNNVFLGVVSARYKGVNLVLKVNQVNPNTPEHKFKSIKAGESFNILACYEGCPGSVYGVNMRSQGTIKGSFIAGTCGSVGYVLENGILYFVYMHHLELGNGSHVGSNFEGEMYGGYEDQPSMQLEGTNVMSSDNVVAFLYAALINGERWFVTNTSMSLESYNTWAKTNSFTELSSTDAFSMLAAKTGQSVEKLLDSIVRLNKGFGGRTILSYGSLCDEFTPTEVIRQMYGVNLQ
Description: The 3CL proteases are highly conserved among all coronaviruses, and feline coronavirus 3CL protease is closely related TGEV 3CL protease. Therefore we cloned and expressed the TGEV 3CL protease for the FRET assay. The cDNA encoding the full length of 3CL protease of TGEV Miller strain was amplified with RT-PCR as previously described. The primers contained the nucleotide sequence of the 3CL protease for cloning as well as the nucleotides for 6 Histidine in the forward primer. The amplified product was subcloned to pET-28a(+) vector (GenScript, Piscataway, N.J.). The expression and purification of the 3CL protease was performed with a standard method described previously by our lab (Chang et al., 2012b; Takahashi et al., 2012; Tiew et al., 2011).
Our protease inhibitor compounds and commercial cathepsin inhibitors CA074-Me and E64d were prepared in DMSO as stock solutions (10 mM), and further diluted in assay buffer consisting of 20 mM HEPES, 0.4 mM EDTA, 30% glycerol, 120 mM NaCl, and 4 mM DTT at pH 6. […] TGEV 3CL protease at a final concentration of 0.1˜0.2 μM and the substrate (Dabcyl-[…]-Edans; SEQ ID NO:2) at 10 μM were used for the studies. The substrate was purchased from Bachem Americas, Inc (Torrance, Calif.). Compounds at various concentrations (0˜50 μM) were pre-incubated with TGEV 3CL protease in 25 μl for 30 min at 37° C., and the same volume of substrate was added to a 96-well black plate. The mixtures were then incubated at 37° C. for 60 min, and fluorescence readings were obtained on a microplate reader at 360 nm excitation and 480 nm emission wavelengths. The relative fluorescence units (RFU) were calculated by subtracting background (substrate control well without protease) from the fluorescence readings. The dose-dependent FRET inhibition curves were fitted with variable slope (four parameters) using GraphPad Prism software (La Jolla, Calif.) in order to determine the compound concentration that gives a half-maximum response (IC50).

[9] = target: PV 3Cpro (codon-optimized, N-terminal 6 His, recombinant) (Poliovirus type 1, UniProt P03300); experiment: biochemical; design: species or system poliovirus (poliomyelitis virus)
Sequence of PV 3Cpro (codon-optimized, N-terminal 6 His, recombinant) (P03300 1566-1748 limits assumed): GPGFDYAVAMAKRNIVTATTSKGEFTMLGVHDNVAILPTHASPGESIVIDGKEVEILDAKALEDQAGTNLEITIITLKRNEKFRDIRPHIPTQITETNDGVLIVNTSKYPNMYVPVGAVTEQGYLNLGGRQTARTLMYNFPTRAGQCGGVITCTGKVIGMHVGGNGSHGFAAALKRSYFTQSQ

229E = experiment: Cell-based screening, 229E in MRC-5 cells (Example 2); conditions: Human coronavirus 229E, MRC5; MRC-5 cells; read-out: Inhibition [ED50 (μM)] against various viruses: Coronavirus, 229E
Experimental: as §1

TGEV = experiment: Cell-based screening, TGEV in ST cells (Example 2); design: species or system transmissible gastroenteritis virus; conditions: Alphacoronavirus 1; ST cells; read-out: Inhibition [ED50 (μM)] against various viruses: Coronavirus, TGEV
Experimental: as §1

[10] = target: FMDV 3Cpro (codon-optimized, N-terminal 6 His, recombinant) (Foot-and-mouth disease virus serotype O, UniProt P03305); experiment: biochemical
Sequence of FMDV 3Cpro (codon-optimized, N-terminal 6 His, recombinant) (P03305 1650-1862 limits assumed): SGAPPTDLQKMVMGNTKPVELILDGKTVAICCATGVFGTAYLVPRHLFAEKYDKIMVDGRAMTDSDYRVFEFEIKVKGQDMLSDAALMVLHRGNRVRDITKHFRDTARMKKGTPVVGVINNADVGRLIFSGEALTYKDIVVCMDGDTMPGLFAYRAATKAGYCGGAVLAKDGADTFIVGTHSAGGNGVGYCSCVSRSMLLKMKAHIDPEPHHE

HAV = experiment: Cell-based screening, HAV (Example 2); design: species or system hepatitis A virus; conditions: Picornaviridae; read-out: Inhibition [ED50 (μM)] against various viruses: Picornavirus, HAV
Experimental: as §1

MNV-1 [11] = experiment: Cell-based screening, MNV-1 in RAW267.4 cells (Example 2); design: species or system murine norovirus; conditions: Norwalk virus; RAW267.4 cells; read-out: Inhibition [ED50 (μM)] against various viruses: Calicivirus, MNV-1
Experimental: as §1

Sequence of MD145 3CLpro (codon-optimized, full-length, N-terminal 6 His, recombinant) (P54634 1009-1189): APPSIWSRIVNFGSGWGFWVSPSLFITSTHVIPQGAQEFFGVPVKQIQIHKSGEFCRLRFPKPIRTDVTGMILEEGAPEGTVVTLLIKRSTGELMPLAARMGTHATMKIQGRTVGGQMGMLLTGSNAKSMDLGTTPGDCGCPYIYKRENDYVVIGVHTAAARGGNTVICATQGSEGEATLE

## CC(C)C[C@H](NC(=O)OCc1ccccc1)C(=O)N[C@@H](CC1CCNC1=O)C(O)S(=O)(=O)O (stereo partly shown) [GC376]
[1]
  IC50: 0.96 µM
[2]
  IC50: 0.49 ± 0.05 µM
EV71
  EC50: 10 µM
FIPV-1146; 24 hr post infection, read-out: Inhibition [ED50 (μM)] against FIPV-1146, 24 hrs
  EC50: 0.15 ± 0.05 µM
FIPV-1146; 48 hr post infection, read-out: Inhibition [ED50 (μM)] against FIPV-1146, 48 hrs
  EC50: 0.3 ± 0.1 µM
[3]
  IC50: 9.8 µM
FIPV
  EC50: 0.2 µM
Teschovirus
  EC50: 0.15 µM
[4]
  IC50: 1.12 µM
MNV-1 [5]
  IC50: 6.2 to 7.1 µM
FECV-1683; 24 hr post infection, read-out: Inhibition [ED50 (μM)] against FECV-1683, 24 hrs
  EC50: 0.17 ± 0.11 µM
FECV-1683; 48 hr post infection, read-out: Inhibition [ED50 (μM)] against FECV-1683, 48 hrs
  EC50: 0.28 ± 0.1 µM
FCV [6]
  EC50: 35 µM
[7]
  EC50: 1.8 µM
FCV [8]
  IC50: 35 µM
TGEV 3CL protease
  IC50: 0.82 µM
[9]
  IC50: 1.77 ± 0.31 µM
229E
  EC50: 0.3 µM
TGEV
  EC50: 0.15 µM
[10]
  IC50: 1.16 ± 0.75 µM
HAV
  EC50: 50 µM
MNV-1 [11]
  EC50: 5.3 µM
